Test results reported in US20190008797A1, “ESTROGEN RECEPTOR ALPHA COLIGANDS, AND METHODS OF USE THEREOF” (priority 2016, published 2019).

Key:
ERα [1] = target: T1, ERα (Homo sapiens, UniProt P03372); assay: Competitive [3H]-E2 binding in U2OS-ERα cells; design: expressed in transfected cells; host or cells: U2OS
MCF-7 cells [2] = assay: MCF-7 cell proliferation (cell counting); settings: 5 days
MCF-7 cells [3] = assay: ERE-TK-Luc transfection assay in MCF-7 cells; settings: 1, 5 or 10 μM + 10 nM E2
U2OS-ERα cells = assay: Microarray gene regulation in U2OS-ERα cells; assay type: cell-based, human
Experimental: Total cellular RNA was isolated utilizing the Aurum™ RNA isolation kit (Bio-Rad, Hercules, Calif.) per the manufacturer's directions. RNA isolates were first quantified by nanodrop®, and then qualitatively evaluated by the Bio-Rad Experion™ system per the manufacturer's instructions. Biotin-labeled cRNA samples were prepared using 750 ng of total RNA. Biotin-labeled samples were evaluated by both 260/280 absorbance spectrophotometry and capillary electrophoresis. Labeled cRNA samples were hybridized overnight against Human genome HG U133A-2.0 GeneChip® arrays, (Affymetrix, Santa Clara, Calif.). All treatments were done in triplicate with the same batch of microarrays. The data was analyzed as previously described (Saunier, E. F., et al. Estrogenic plant extracts reverse weight gain and fat accumulation without causing mammary gland or uterine proliferation. PloS one 6, e28333 (2011)).
FIGS. 2a-2f2′, 3′, 4′-THC behaves as a unique coagonist on gene expression in U2OS-ERα cells. […] Expression was assessed by up regulation or down regulation of 3-fold or more and a P-value≤0.05. […] Error bars are ±SEM.

NKG2E promoter = assay: ChIP of ERα and SRC-2 at the NKG2E promoter in U2OS-ERα cells; assay type: cell-based, human; settings: 2′,3′,4′-THC/E2 combination, 2 hr
Experimental: Cells were fixed with 11X formaldehyde solution for 10 minutes at 37° C. and the reaction was quenched for 2 minutes with 1.25M glycine solution as previously described (Cvoro, A., et al. Distinct Roles of Unliganded and Liganded Estrogen Receptors in Transcriptional Repression. Mol Cell 21, 555-564 (2006)). Cells were washed and collected in collecting buffer (100 mM Tris-HCl pH 9.4 and 10 mM dithiothreitol (DTT)) supplemented with a protease inhibitor cocktail. Pellets were frozen overnight at −80° C. then were thawed on ice and lysed (50 mM Tris pH 7.4, 150 mM NaCl, 10 mM ethylenediaminetetraacetic acid (EDTA), 0.5 mM ethylene glycol tetraacetic acid (EGTA), 0.5% Triton™ X-100 and 1X protease inhibitor cocktail). Cell lysates were centrifuged and cell pellet was resuspended in RIPA buffer. Samples were sonicated and supernatant was collected. Approximately 5% of each sample was taken for input and stored at 4° C. Immune complexes were collected using magnetic sepharose beads (GE Healthcare, Pittsburgh, Pa.) equilibrated in radioimmunoprecipitation assay (RIPA) buffer. Complexes were collected over a period of 3 to 4 hours rotating at 4° C. […]
FIGS. 2a-2f2′, 3′, 4′-THC behaves as a unique coagonist on gene expression in U2OS-ERα cells. […] Expression was assessed by up regulation or down regulation of 3-fold or more and a P-value≤0.05. […]

ERα [4] = target: T1, ERα; assay: NKG2E-TK-Luc transfection assay, U2OS cells cotransfected with ERα; assay type: cell-based; design: expressed in transfected cells; host or cells: U2OS
Experimental: FIG. 7a-7e. […] (C) U2OS cells cotransfected with GRE-TK-Luc and human (h) GR and treated with 10 nM of dexamethasone (Dex) and 5 μM of 2′, 3′, 4′-THC alone or in combination for 24 hours. (D) U2OS cells cotransfected with human tyrosine aminotransferase (TATS)-luciferase reporter gene and hAR and treated with 10 nM of dihydrotestosterone (DHT) and 5 μM of 2′, 3′, 4′-THC alone or in combination for 24 hours. (E) U2OS cells cotransfected with TAT3-luciferase reporter gene and hPR-B and treated with 10 nM of progesterone (Prog) and 5 μM of 2′, 3′, 4′-THC alone or in combination for 24 hours. After transfection, luciferase activities were measured as described in the Methods. RLU is relative light units and the data shown are mean±SEM.
(FIGS. 6a, 6b) Gene expression of (FIG. 6a) KRT73 and (FIG. 6b) NKG2E in U2OS-ERα cells treated with 10 nM estradiol, 5 μM 2′, 3′, 4′-THC, 1μM ICI alone or in combination for 24 hours. […] Error bars are ±SEM. […] After transfection, luciferase activities were measured as described in the Methods. RLU is relative light units and the data shown are mean ±SEM. (FIG. 6c). […] After transfection, luciferase activities were measured as described in the Methods. RLU is relative light units and the data shown are mean ±SEM (FIG. 6d).

purified ERα = purified ERα (Homo sapiens, UniProt P03372); assay: Fluorescent polarization with purified ERα; assay type: binding
ERα [5] = target: T1, ERα; assay: ERE-tk luciferase transfection assay, U2OS cells cotransfected with ERα; assay type: cell-based; design: expressed in transfected cells; host or cells: U2OS
Experimental: (FIG. 1a) Chemical structure of 2′, 3′, 4′-THC. (FIG. 1b) U2OS cells cotransfected with ERE tk-luciferase and ERα (left panel) or ERβ (right panel). After transfection the cells were treated for 24 hours with 10 nM estradiol and 5 μM 2′, 3′, 4′-THC alone or in combination. Cells were lysed and luciferase activity was measured. RLU is relative light units. Error bars are the Mean±SEM. **P≤0.01. […] The total cellular RNA was extracted and real-time PCR for KRT19 mRNA was performed as described in Materials and Methods. […] Error bars are ±SEM. *P≤0.05, **** P≤0.0001.

T1 sequence (P03372 whole entry): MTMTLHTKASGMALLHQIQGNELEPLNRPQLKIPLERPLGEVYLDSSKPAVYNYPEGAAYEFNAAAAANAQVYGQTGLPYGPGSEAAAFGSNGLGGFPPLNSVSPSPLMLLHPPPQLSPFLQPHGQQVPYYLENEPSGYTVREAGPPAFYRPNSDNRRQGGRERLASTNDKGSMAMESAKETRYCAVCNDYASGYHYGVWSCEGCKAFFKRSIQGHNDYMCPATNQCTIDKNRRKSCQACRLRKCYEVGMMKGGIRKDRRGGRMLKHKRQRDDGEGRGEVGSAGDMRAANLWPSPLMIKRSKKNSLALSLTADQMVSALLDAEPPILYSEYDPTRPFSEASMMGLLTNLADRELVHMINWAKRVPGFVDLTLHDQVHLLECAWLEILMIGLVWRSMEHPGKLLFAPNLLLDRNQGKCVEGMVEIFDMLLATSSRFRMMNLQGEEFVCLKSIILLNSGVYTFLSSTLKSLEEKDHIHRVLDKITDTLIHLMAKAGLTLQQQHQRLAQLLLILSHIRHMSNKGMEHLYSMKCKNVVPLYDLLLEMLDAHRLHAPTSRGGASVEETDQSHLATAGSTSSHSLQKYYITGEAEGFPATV
purified ERα, sequence (P03372 whole entry): as above

O=C(/C=C/c1ccccc1)c1ccc(O)c(O)c1O [2′, 3′, 4′-THC, 2′, 3′, 4′-trihydroxychalcone]
competing concentration relative to concentration required for synergy (ERα [1]): 100 fold
increase of [3H]-E2 binding (ERα [1]; 5 or 10 μM, 5 nM [3H]-E2, 1 h, 37°C): ~2 fold
IC50 relative to E2 (higher) (ERα [1]; U2OS-ERα cells): approximately 10,000 fold
concentration at which the compound competes for [3H]-E2 binding (ERα [1]; no competition below, 5 nM [3H]-E2): 100 µM
effect on proliferation induced by E2 (MCF-7 cells [2]; 1, 5 and 10 μM, dose-dependent): blocked
MCF-7 cell proliferation, compound alone (MCF-7 cells [2]): no effect
E2 activation of ERE-TK-Luc (MCF-7 cells [3]): dose-dependent synergistic increase
number of genes regulated, compound alone (U2OS-ERα cells; 10 nM E2 or 5 μM 2′,3′,4′-THC, 3-fold or more, P≤0.05): 31 genes
genes regulated by the combination that were also regulated by E2 (U2OS-ERα cells; 5 μM + 10 nM E2): 534 genes
number of genes regulated by the 2′,3′,4′-THC/E2 combination (U2OS-ERα cells; 5 μM + 10 nM E2): 1,358 genes
unique genes only regulated by the 2′,3′,4′-THC/E2 combination (U2OS-ERα cells; 5 μM + 10 nM E2): 824 genes
recruitment of ERα to the NKG2E promoter (NKG2E promoter): increased recruitment
recruitment of SRC-2 to the NKG2E promoter (NKG2E promoter): increased recruitment
response of NKG2E-TK-Luc with E2 (ERα [4]; 1 μM 2′,3′,4′-THC): synergistic response
response of NKG2E-TK-Luc with E2 (ERα [4]; 5 μM 2′,3′,4′-THC): maximal response
synergistic activation of NKG2E-TK-Luc in combination with E2, tamoxifen or raloxifene (ERα [4]; 5 μM, 10 nM E2, 1 μM tamoxifen, 1 μM raloxifene, 24 hours): synergistic activation only with E2
activation of NKG2E-TK-Luc, compound alone (ERα [4]; 24 hours): No activation
IC50 relative to E2 (higher) (purified ERα): approximately 10,000 fold
luciferase activity with E2 (ERα [5]; ERα, 5 μM chalcone + 10 nM E2, 24 hours): synergistic increase
activity on ERE luciferase, compound alone (ERα [5]; U2OS cells transfected with ERα, 5 μM, 24 hours): inactive
